“Also recorded” adds a separate entry of the source. Like-named read-outs stand apart in the source and are kept apart here.
How the values were obtained:
CA VA = molecular target: T1, CA VA (Homo sapiens, UniProt P35218); assay: Fluorescent thermal shift assay (FTSA); assay type: binding; settings: pH 7.0, 37° C
T1 construct: 12 recombinant catalytic domains of human active CA isoforms as determined by FTSA
Description: (§1) The binding affinity of synthesized compounds to recombinant human CAs was measured by the fluorescent thermal shift assay (FTSA) where the thermal stabilization of the protein by the compound was determined by following the fluorescence dependence on temperature at various added compound concentrations. The melting temperature (Tm) of CA was measured using the Corbett Rotor-Gene 6000 instrument (QIAGEN Rotor-Gene Q, excitation at 365 ± 20 nm, emission detection at 460 ± 15 nm). The protein was heated from 25 to 99° C at a rate of 1° C/min and the fluorescence change of the solvatochromic dye 8-anilino-1-naphthalene sulfonate (ANS) was followed. The samples consisted of 5–10 μM CA, 0–200 μM ligand, 50 μM ANS, and 50 mM sodium phosphate buffer containing 100 mM NaCl at pH 7.0, with the final DMSO concentration of 2% (v/v). Protein unfolding profiles and the melting temperatures were determined at each ligand concentration while recording extrinsic fluorescence of ANS. Data analysis was performed as previously described. All experiments were repeated at least twice.

CA IX [1] = molecular target: T2, CA IX (Homo sapiens, UniProt Q16790); assay: Fluorescent thermal shift assay (FTSA); assay type: binding; settings: pH 7.0, 37° C
T2 construct: 12 recombinant catalytic domains of human active CA isoforms as determined by FTSA
Description: as §1

CA VI = molecular target: T3, CA VI (Homo sapiens, UniProt P23280); assay: Fluorescent thermal shift assay (FTSA); assay type: binding; settings: pH 7.0, 37° C
T3 construct: 12 recombinant catalytic domains of human active CA isoforms as determined by FTSA
T3 sequence (P23280 21-278 limits assumed): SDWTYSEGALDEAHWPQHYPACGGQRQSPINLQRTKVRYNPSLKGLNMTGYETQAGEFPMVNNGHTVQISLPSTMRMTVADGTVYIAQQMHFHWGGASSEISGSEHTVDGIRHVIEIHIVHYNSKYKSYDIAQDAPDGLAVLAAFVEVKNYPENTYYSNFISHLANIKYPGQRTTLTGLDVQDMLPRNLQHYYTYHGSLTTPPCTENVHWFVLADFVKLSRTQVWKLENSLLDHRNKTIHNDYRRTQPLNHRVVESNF
Description: as §1

CA II = molecular target: T4, CA II (Homo sapiens, UniProt P00918); assay: Fluorescent thermal shift assay (FTSA); assay type: binding; settings: pH 7.0, 37° C
T4 construct: 12 recombinant catalytic domains of human active CA isoforms as determined by FTSA
Description: as §1

CA IV = molecular target: T5, CA IV (Homo sapiens, UniProt P22748); assay: Fluorescent thermal shift assay (FTSA); assay type: binding; settings: pH 7.0, 37° C
T5 construct: 12 recombinant catalytic domains of human active CA isoforms as determined by FTSA
T5 sequence (P22748 21-285 limits assumed): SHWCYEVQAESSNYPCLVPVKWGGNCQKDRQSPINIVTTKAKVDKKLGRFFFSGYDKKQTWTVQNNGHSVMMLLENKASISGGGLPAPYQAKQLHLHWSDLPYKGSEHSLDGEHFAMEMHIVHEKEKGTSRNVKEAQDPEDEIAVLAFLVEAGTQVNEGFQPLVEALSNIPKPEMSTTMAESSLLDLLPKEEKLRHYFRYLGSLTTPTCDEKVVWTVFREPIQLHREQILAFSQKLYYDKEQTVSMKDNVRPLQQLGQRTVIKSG
Description: as §1

CA XIV = molecular target: T6, CA XIV (Homo sapiens, UniProt Q9ULX7); assay: Fluorescent thermal shift assay (FTSA); assay type: binding; settings: pH 7.0, 37° C
T6 construct: 12 recombinant catalytic domains of human active CA isoforms as determined by FTSA
T6 sequence (Q9ULX7 20-278 limits assumed): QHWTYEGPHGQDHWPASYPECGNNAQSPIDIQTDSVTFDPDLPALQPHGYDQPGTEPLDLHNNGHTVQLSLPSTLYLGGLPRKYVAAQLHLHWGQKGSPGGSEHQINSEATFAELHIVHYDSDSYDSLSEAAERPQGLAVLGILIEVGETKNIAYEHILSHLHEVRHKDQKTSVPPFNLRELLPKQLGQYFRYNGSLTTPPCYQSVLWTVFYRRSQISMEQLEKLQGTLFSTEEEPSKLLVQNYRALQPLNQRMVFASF
Description: as §1

CA VII = molecular target: T7, CA VII (Homo sapiens, UniProt P43166); assay: Fluorescent thermal shift assay (FTSA); assay type: binding; settings: pH 7.0, 37° C
T7 construct: 12 recombinant catalytic domains of human active CA isoforms as determined by FTSA
T7 sequence (P43166 5-262 limits assumed): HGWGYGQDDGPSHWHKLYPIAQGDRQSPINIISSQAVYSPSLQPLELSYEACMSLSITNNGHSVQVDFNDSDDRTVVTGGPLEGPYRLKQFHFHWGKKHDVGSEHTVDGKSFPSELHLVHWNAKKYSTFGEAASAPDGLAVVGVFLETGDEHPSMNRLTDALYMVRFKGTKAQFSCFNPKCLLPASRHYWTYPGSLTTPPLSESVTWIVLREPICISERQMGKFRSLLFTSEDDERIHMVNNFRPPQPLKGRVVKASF
Description: as §1

CA III = molecular target: T8, CA III (Homo sapiens, UniProt P07451); assay: Fluorescent thermal shift assay (FTSA); assay type: binding; settings: pH 7.0, 37° C
T8 construct: 12 recombinant catalytic domains of human active CA isoforms as determined by FTSA
T8 sequence (P07451 3-259 limits assumed): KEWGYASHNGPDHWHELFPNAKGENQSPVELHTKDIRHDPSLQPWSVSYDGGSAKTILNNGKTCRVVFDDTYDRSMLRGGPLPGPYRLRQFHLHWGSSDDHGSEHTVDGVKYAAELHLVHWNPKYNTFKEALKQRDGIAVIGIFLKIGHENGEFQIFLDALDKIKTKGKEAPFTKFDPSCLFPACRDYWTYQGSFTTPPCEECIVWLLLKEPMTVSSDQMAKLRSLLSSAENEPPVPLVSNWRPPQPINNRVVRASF
Description: as §1

CA VB = molecular target: T9, CA VB (Homo sapiens, UniProt Q9Y2D0); assay: Fluorescent thermal shift assay (FTSA); assay type: binding; settings: pH 7.0, 37° C
T9 construct: 12 recombinant catalytic domains of human active CA isoforms as determined by FTSA
T9 sequence (Q9Y2D0 37-296 limits assumed): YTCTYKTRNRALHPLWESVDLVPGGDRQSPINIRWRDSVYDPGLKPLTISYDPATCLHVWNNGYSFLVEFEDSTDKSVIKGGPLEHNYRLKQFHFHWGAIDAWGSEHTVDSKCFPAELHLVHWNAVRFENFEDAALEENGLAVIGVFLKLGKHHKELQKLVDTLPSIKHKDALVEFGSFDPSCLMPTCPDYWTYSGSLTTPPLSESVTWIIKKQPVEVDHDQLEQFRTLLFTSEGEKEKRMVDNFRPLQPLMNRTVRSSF
Description: as §1

CA XII [2] = molecular target: T10, CA XII (Homo sapiens, UniProt O43570); assay: Fluorescent thermal shift assay (FTSA); assay type: binding; settings: pH 7.0, 37° C
T10 construct: 12 recombinant catalytic domains of human active CA isoforms as determined by FTSA
T10 sequence (O43570 30-289 limits assumed): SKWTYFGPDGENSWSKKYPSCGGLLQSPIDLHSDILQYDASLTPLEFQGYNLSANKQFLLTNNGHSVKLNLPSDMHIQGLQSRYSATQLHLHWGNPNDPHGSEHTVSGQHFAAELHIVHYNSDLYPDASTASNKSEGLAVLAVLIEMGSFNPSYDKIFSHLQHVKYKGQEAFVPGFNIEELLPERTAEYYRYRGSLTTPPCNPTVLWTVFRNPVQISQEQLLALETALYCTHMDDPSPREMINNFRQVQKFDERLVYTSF
Description: as §1

CA I = molecular target: T11, CA I (Homo sapiens, UniProt P00915); assay: Fluorescent thermal shift assay (FTSA); assay type: binding; settings: pH 7.0, 37° C
T11 construct: 12 recombinant catalytic domains of human active CA isoforms as determined by FTSA
T11 sequence (P00915 4-261 limits assumed): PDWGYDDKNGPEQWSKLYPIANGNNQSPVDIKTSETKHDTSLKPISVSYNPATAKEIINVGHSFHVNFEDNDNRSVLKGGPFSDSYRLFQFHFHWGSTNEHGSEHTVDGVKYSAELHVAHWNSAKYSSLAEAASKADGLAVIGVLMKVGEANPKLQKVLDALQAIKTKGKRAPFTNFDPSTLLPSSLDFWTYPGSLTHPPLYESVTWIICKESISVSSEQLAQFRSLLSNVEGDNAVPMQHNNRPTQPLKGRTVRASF
Description: as §1

CA XIII = molecular target: T12, CA XIII (Homo sapiens, UniProt Q8N1Q1); assay: Fluorescent thermal shift assay (FTSA); assay type: binding; settings: pH 7.0, 37° C
T12 construct: 12 recombinant catalytic domains of human active CA isoforms as determined by FTSA
T12 sequence (Q8N1Q1 4-261 limits assumed): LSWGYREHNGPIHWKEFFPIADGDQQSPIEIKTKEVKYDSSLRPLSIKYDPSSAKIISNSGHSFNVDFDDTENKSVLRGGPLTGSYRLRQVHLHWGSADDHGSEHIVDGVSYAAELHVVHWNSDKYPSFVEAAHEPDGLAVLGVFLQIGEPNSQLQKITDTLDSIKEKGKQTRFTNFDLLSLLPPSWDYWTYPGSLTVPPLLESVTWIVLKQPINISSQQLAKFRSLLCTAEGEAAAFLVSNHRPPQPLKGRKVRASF
Description: as §1

HeLa cells [3] = assay: alamarBlue cell viability assay; assay type: cell-based, human; settings: 72 h; for EC50: Homo sapiens, HeLa
Description: (§3) Cytotoxicity of inhibitors was determined by the alamarBlue® cell viability assay (Life Technologies). […] Briefly, cells were seeded in 96-well plates and allowed to attach overnight in normoxia. […] After 72 h, cells were incubated with 10% alamarBlue® for 2 h under normoxia at 37° C. The fluorescence signal was measured using the multi-mode microplate reader (FLUOstar® Omega, BMG Labtech) at 580 nm (excitation wavelength 540 nm). Response to treatments was quantified by evaluating EC50 values (concentration of inhibitor that leads to half-maximum viability response determined by Hill fit).

H460 cells [4] = assay: alamarBlue cell viability assay; assay type: cell-based; settings: Homo sapiens, NCI-H460, 72 h
Description: as §3

H460 cells [5] = assay: Extracellular acidification (pH) assay; assay type: cell-based, human; settings: H460, hypoxia 0.2% O2, 72 h
CA IX [6] = molecular target: T2, CA IX; assay: Stopped-flow CO2 hydration inhibition assay (SFA); assay type: biochemical; settings: pH 7.5, 25° C, value in parentheses
Description: (§2) The enzymatic activity of carbonic anhydrase isoforms and their inhibition was determined by the stopped-flow CO2 hydration assay where the formed acid was followed by the absorbance change of a pH indicator. The Applied Photophysics SX.18MV-R stopped-flow spectrometer was used to measure the absorbance change of Phenol-Red pH indicator at 557 nm. Saturated CO2 solution was prepared by bubbling the CO2 gas in MilliQ water at 25° C for 1 h. Experiments were performed at 25° C using 25 mM Hepes buffer containing 50 mM NaCl (pH 7.5), 0–10 μM compound with the final 0.4% (v/v) DMSO concentration. The final enzyme concentration was 10 nM for CA IX and 20 nM for CA XII. Raw curves of absorbance change were analyzed using Origin 8.1 (OriginLab Corporation) and the slope values were used to evaluate the rates of CO2 hydration. Spontaneous CO2 hydration rate was used as a zero value, while the CA catalyzed reaction rate - as a maximum value.

[7] = system: extracellular CA in intact hypoxic MDA-MB-231 cells; settings: 1 μM; cited from earlier work
AsPC-1 cells [8] = assay: Extracellular acidification (pH) assay; assay type: cell-based, human; settings: AsPC-1, hypoxia 0.2% O2, 72 h
H460 spheroids = assay: Clonogenic cell survival assay, 3D spheroids; assay type: cell-based, human; settings: non-hypoxic (day 4) versus hypoxic (day 11) H460 spheroids, 5–15 μM, 24 h
Description: Clonogenic survival of HeLa cell monolayers was evaluated using cell densities applied in the extracellular acidification assay to determine the effect of inhibitors on the clonogenic cell survival while having the same acidification conditions. […] Then cells were trypsinized, reseeded in triplicate with known cell densities and allowed to form colonies for 14 days. […] Single cell suspensions were prepared and cells were plated in triplicate with known cell densities and allowed to form colonies for 14 days. […] Surviving fraction was normalized to vehicle (DMSO). To prepare plates for the growth of attachment-free H460 spheroids, autoclaved 1.5% w/v agarose (Sigma-Aldrich) was dispensed in the inner 60 wells of 96-well plates (50 μL/well) and left for polymerization at room temperature for 30 min. H460 cells were plated in modified 96-well plates to the surface of agarose menisci with a density of 500 cells/well. The DMEM was refreshed every two days. After 7 or 11 days in culture, spheroids were incubated with 20 μg/mL pimonidazole (PIMO, Hypoxyprobe-1, HP-1000, BioConnect) for 2 h at 37° C, collected and cryoconserved for immunofluorescence analysis (see below).

A549 cells = assay: alamarBlue cell viability assay; assay type: cell-based; settings: Homo sapiens, A549, 72 h
Description: as §3

[9] = system: 4 investigated cell lines; assay: Extracellular acidification (pH) assay, cell line panel; assay type: cell-based, human; settings: 50 μM, hypoxia 0.2% O2, 72 h
Description: HeLa, H460, MDA-MB-231, and AsPC-1 cells were cultured in DMEM (Lonza) supplemented with 10% FBS (Lonza), whereas A549 cells were grown in-house made analogous medium differing only by a lower amount of sodium bicarbonate (final concentration 10 mM). Cell densities for each cell line were optimized to get ~100% confluence at the end of experiment under normoxic and hypoxic (0.2% O2) conditions upon vehicle (0.05% DMSO) treatment. Such conditions were necessary to obtain the highest possible level of CA IX-dependent extracellular acidification. Cells were plated in 6 cm dishes and allowed to attach overnight in normoxia. […] Results are shown as a difference between the pH of medium in the control plate (without seeded cells) and the pH of medium in the targeted plate (cells exposed to the compound or vehicle).

HeLa cells [10] = assay: Extracellular acidification (pH) assay; assay type: cell-based, human; settings: for hypoxia-induced extracellular acidification: hypoxia 0.2% O2, 72 h, 5–50 μM; for effect on extracellular acidification under normoxia: normoxia 21% O2, 72 h
MDA-MB-231 cells = assay: alamarBlue cell viability assay; assay type: cell-based; settings: Homo sapiens, MDA-MB-231, 72 h
Description: as §3

[11] = system: CA activity in hypoxic HeLa CA IX KO cells; assay: CA catalytic activity via MS gas-analysis, CA IX knockout cells; assay type: cell-based, human; settings: both HeLa CA IX KO lines
Description: The reaction sequence of ^18O loss from ^13C^18O^18O (m/z = 49) over the intermediate product ^13C^18O^16O (m/z = 47) and the end product ^13C^16O^16O (m/z = 45) was monitored with a quadrupole mass spectrometer (OmniStar GSD 320; Pfeiffer Vacuum, Asslar, Germany). The relative ^18O enrichment was calculated from the measured 45, 47, and 49 m/z abundance as a function of time according to: log enrichment = log (49×100/(49+47+45)). For the calculation of CA activity, the rate of ^18O depletion was obtained from the linear slope of the log enrichment over the time, using OriginPro 8.6 (OriginLab Corporation). The rate was compared with the corresponding rate of the non-catalyzed reaction. Enzyme activity in units (U) was calculated from these two values as defined by Badger and Price [59]. […] For every measurement, the non-catalyzed reaction was determined for 6 min in the presence of inhibitor, before cell suspension was added to the measuring cuvette and the catalyzed reaction was determined for 8 min. […] IC50 values were determined by Hill equation using OriginPro 8.6. To investigate specificity of the inhibitors in HeLa WT and HeLa CA IX KO cells, the non-catalyzed reaction was determined for 6 min in the absence of inhibitor, before a suspension of 5 × 10^6 cells was added to the measuring cuvette. […]

AsPC-1 cells [12] = assay: alamarBlue cell viability assay; assay type: cell-based; settings: Homo sapiens, ASPC1, 48 h
Description: as §3

CA XII [13] = molecular target: T10, CA XII; assay: Stopped-flow CO2 hydration inhibition assay (SFA); assay type: biochemical; settings: pH 7.5, 25° C, value in parentheses
Description: as §2

[14] = 0.2% O2 (hypoxia), read-out: EC50
[15] = 21% O2 (normoxia), read-out: EC50
[16] = H460, 0.2% O2 (hypoxia), read-out: EC50
[17] = H460, 21% O2 (normoxia), read-out: EC50

T1 sequence (P35218 39-296 limits assumed): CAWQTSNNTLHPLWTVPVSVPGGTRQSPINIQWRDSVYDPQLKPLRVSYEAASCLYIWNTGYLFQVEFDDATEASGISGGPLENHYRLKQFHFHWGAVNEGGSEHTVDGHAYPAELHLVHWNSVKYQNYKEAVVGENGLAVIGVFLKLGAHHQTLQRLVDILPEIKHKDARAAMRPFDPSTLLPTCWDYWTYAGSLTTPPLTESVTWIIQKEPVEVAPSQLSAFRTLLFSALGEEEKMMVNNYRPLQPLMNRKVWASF

| SMILES | Kd (CA VA) | Kd (CA IX [1]) | Kd (CA VI) | Kd (CA II) | Kd (CA IV) | Kd (CA XIV) | Kd (CA VII) | Kd (CA III) | Kd (CA VB) | Kd (CA XII [2]) | Kd (CA I) | Kd (CA XIII) | EC50 (HeLa cells [3]; [14]) | EC50 (HeLa cells [3]; [15]) | EC50 (H460 cells [4]; [16]) | EC50 (H460 cells [4]; [17]) | Ki (CA IX [6]) | hypoxia-induced extracellular acidification (HeLa cells [10]) | effect on extracellular acidification under normoxia (HeLa cells [10]) | other results |
| --- | --- | --- | --- | --- | --- | --- | --- | --- | --- | --- | --- | --- | --- | --- | --- | --- | --- | --- | --- | --- |
| NS(=O)(=O)c1c(F)c(F)c(SCCc2ccc(C(=O)O)cc2)c(F)c1NC1CCCCCCC1 [VR16-10, 4-(2-{[4-(Aminosulfonyl)-3-(cyclooctylamino)-2,5,6-tetrafluorophenyl]thio}ethyl)benzoic acid] | 5 µM | 0.2 nM | 26.3 µM | 1000 nM | 1820 nM | 170 nM | 0.1 µM | ≥ 200 µM | 0.1 µM | 370 nM | 5 µM | 40 nM | > 150 µM | 93.3 ± 5.8 µM | > 150 µM | 83.3 ± 15.3 µM | < 1 nM |  |  | Cytotoxic ratio (CR) of selectivity to hypoxia (HeLa cells [3]; human, HeLa cells): > 0.62; hypoxia-induced extracellular acidification (H460 cells [5]): Dose-dependent reduction; also recorded: smallest, albeit significant (p < 0.05), impact |
| CC(=O)Nc1nnc(S(N)(=O)=O)s1 [acetazolamide] |  |  |  |  |  |  |  |  |  |  |  |  |  |  |  |  |  |  |  | Extracellular CA activity [7]: significantly reduced |
| NS(=O)(=O)c1c(F)c(F)c(SCCc2ccc(C(=O)O)cc2)c(F)c1NC1CCCCCCCCCCC1 [VR16-09, 4-(2-{[4-(Aminosulfonyl)-3-(cyclododecylamino)-2,5,6-tetrafluorophenyl]thio}ethyl)benzoic acid] | ≥ 200 µM | 0.16 nM | ≥ 200 µM | ≥ 200000 nM | ≥ 200000 nM | 170 nM | 37 µM | ≥ 200 µM | 45 µM | 710 nM | ≥ 200 µM | 20 nM | 40.8 ± 9.6 µM | 20.2 ± 4.3 µM | 40 ± 9.6 µM | 19.3 ± 3.6 µM | < 1 nM | significantly (p < 0.05) reduced | negligible | hypoxia-induced acidosis (AsPC-1 cells [8]): increased; clonogenic survival of cells derived from spheroids (H460 spheroids): hypoxia-dependent effect on clonogenic survival; EC50 (A549 cells; A549, 0.2% O2 (hypoxia), read-out: EC50): 76.7 ± 2.9 µM; EC50 (A549 cells; A549, 21% O2 (normoxia), read-out: EC50): 17 ± 1 µM; hypoxia-induced acidosis [9]: significantly reduced; EC50 (MDA-MB-231 cells; MDA-MB-231, 0.2% O2 (hypoxia), read-out: EC50): 84.2 ± 4.9 µM; EC50 (MDA-MB-231 cells; MDA-MB-231, 21% O2 (normoxia), read-out: EC50): 74.2 ± 3.8 µM; CA activity after addition of inhibitor ([11]; 300 nM): did not alter CA activity; EC50 (AsPC-1 cells [12]; AsPC-1, 0.2% O2 (hypoxia), read-out: EC50): 160 ± 17 µM; EC50 (AsPC-1 cells [12]; AsPC-1, 21% O2 (normoxia), read-out: EC50): 153 ± 23 µM; Ki (CA XII [13]): 100 nM |
| NS(=O)(=O)c1c(F)c(F)c(SCCO)c(F)c1NC1CCCCCCC1 [VD12-09] |  |  |  |  |  |  |  |  |  |  |  |  |  |  |  |  |  | significantly (p < 0.05) reduced | negligible | EC50 (A549 cells; A549, 0.2% O2 (hypoxia)): 98.8 ± 8.5 µM; EC50 (A549 cells; A549, 21% O2 (normoxia)): 33.8 ± 2.5 µM; EC50 (HeLa cells [3]; 0.2% O2 (hypoxia)): 46.9 ± 7 µM; EC50 (HeLa cells [3]; 21% O2 (normoxia)): 21.6 ± 4.1 µM; EC50 (H460 cells [4]; H460, 0.2% O2 (hypoxia)): 37 ± 7.6 µM; EC50 (H460 cells [4]; H460, 21% O2 (normoxia)): 17.8 ± 2.2 µM; EC50 (MDA-MB-231 cells; MDA-MB-231, 0.2% O2 (hypoxia)): 67.6 ± 7.1 µM; EC50 (MDA-MB-231 cells; MDA-MB-231, 21% O2 (normoxia)): 55.4 ± 6.6 µM; CA activity after addition of inhibitor ([11]; 30 μM): did not alter CA activity; EC50 (AsPC-1 cells [12]; AsPC-1, 0.2% O2 (hypoxia)): 83.3 ± 5.8 µM; EC50 (AsPC-1 cells [12]; AsPC-1, 21% O2 (normoxia)): 100 ± 20 µM |

— paper PMC6003569, “Novel fluorinated carbonic anhydrase IX inhibitors reduce hypoxia-induced acidification and clonogenic survival of cancer cells” (Oncotarget, 2018)
